Legend:
coxsackievirus B [1] = conditions: in vitro; mechanism not defined; cited from earlier work
echoviruses = conditions: in vitro; mechanism not defined; cited from earlier work
Coxsackievirus B [2] = conditions: intravenous matrine; 0% in the placebo-treated group; cited from earlier work
enterovirus = test: case report Example 5, treatment of chronic fatigue; assay type: in vivo, human; conditions: before oxymatrine
Method: A person developed debilitating fatigue, sore throat, oral ulcers, vertigo, headaches and cognitive dysfunction two months after having a flu-like illness. […] Approximately four years later, the patient started taking oxymatrine. After an initial increase of gastrointestinal symptoms for the first two weeks, the patient tolerated 500 mg per day of oxymatrine.
The symptoms continued for two weeks and resolved after stopping oxymatrine. […] They continued to improve for 12 months after taking the medication.

Row | SMILES | growth inhibition of coxsackievirus B in cell cultures (coxsackievirus B [1]) | growth inhibition of echoviruses in cell cultures (echoviruses) | patients with improvement of cardiac function, increase in lymphocyte number and function, and loss of viral markers (Coxsackievirus B [2]) | clinical response (enterovirus)
1 | O=C1CCC[C@@H]2[C@H]3CCCN4CCC[C@@H](CN12)[C@@H]34 [matrine] | growth inhibition | growth inhibition | more than 90% | –
2 | CC(C)[C@H](N)C(=O)OCCOCn1cnc2c(=O)[nH]c(N)nc21 [valacyclovir, reference compound] | – | – | – | did not respond

— patent EP2307018B1, “OXYMATRINE COMPOSITIONS AND USE THEREOF FOR TREATING AND PREVENTING CHRONIC INFECTIOUS DISEASES” (Chia, John K.S., priority 2008, dated 2010)
